Laboratory results as given in PubChem BioAssay (NCI).
Several values for one entry are separate records, joined by “and”; a condition that tells them apart may be missing. Equal values may be shown once.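 Protocol summary: plate cells (96-well), add compound at 5 concentrations, incubate 48 h, interpolate endpoints linearly. At the GI50, growth is halved. At the TGI there is no net growth.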

Key:
Experiment in all cases: inhibition of tumour cell growth, NCI panel, 48 h
SN12C renal = test system: SN12C renal
NCI-H23 lung = test system: NCI-H23 lung
A549 NSCLC = test system: A549 NSCLC
HCC-2998 colon = test system: HCC-2998 colon
HL-60(TB) leukemia = test system: HL-60(TB) leukemia
SK-MEL-28 melanoma = test system: SK-MEL-28 melanoma
SK-MEL-5 melanoma = test system: SK-MEL-5 melanoma
NCI-H226 lung = test system: NCI-H226 lung
MALME-3M melanoma = test system: MALME-3M melanoma
CAKI-1 renal = test system: CAKI-1 renal

SMILES | TGI (SN12C renal) | TGI (NCI-H23 lung) | TGI (A549 NSCLC) | TGI (HCC-2998 colon) | TGI (HL-60(TB) leukemia) | TGI (SK-MEL-28 melanoma) | TGI (SK-MEL-5 melanoma) | TGI (NCI-H226 lung) | TGI (MALME-3M melanoma) | TGI (CAKI-1 renal) | GI50 (SN12C renal) | GI50 (CAKI-1 renal) | GI50 (NCI-H23 lung) | GI50 (A549 NSCLC) | GI50 (HCC-2998 colon) | GI50 (HL-60(TB) leukemia) | GI50 (SK-MEL-5 melanoma) | GI50 (NCI-H226 lung) | GI50 (MALME-3M melanoma) | GI50 (SK-MEL-28 melanoma)
O=c1ccnc2c1ccc1[nH]cccc12 | > 100 µM | > 100 µM | > 100 µM | > 100 µM | > 100 µM | > 100 µM | > 100 µM | > 100 µM | > 100 µM |  |  |  |  |  |  |  |  |  |  | 
CC(=O)Nc1c(C)ccc2c1C(=O)c1ccccc1C2=O | > 100 µM |  | > 100 µM | > 100 µM | > 100 µM |  | > 100 µM | > 100 µM | > 100 µM | > 100 µM |  |  |  |  |  |  |  |  |  | 
CC(=O)/C(=C\C1=CCCO1)C(=O)Nc1ccccc1C | > 100 µM | > 100 µM | > 100 µM | > 100 µM | > 100 µM |  | > 100 µM | > 100 µM | > 100 µM | > 100 µM |  |  |  |  |  |  |  |  |  | 
c1cc(OCCN2CCCCC2)ccc1CNc1ccc2nc(CCC3CCCCC3)[nH]c2c1 | 3.33 µM | 4.91 µM | 7.06 µM | 4.28 µM | 3.78 µM |  | 3.01 µM | 4.29 µM | 3.14 µM | 3.93 µM | 1.52 µM | 1.96 µM | 2.03 µM | 2.54 µM | 2.05 µM | 1.79 µM | 1.63 µM | 1.83 µM | 1.62 µM | 
Cc1ccc(/C=C/C(=O)c2sc(-c3cccnc3)nc2C)cc1 | > 100 µM | > 100 µM | > 100 µM | > 100 µM | > 100 µM |  | > 100 µM | > 100 µM | > 100 µM | > 100 µM |  |  |  |  |  |  |  |  |  | 
O=C([CH-]C(=O)c1ccccc1)c1ccccc1.O=C([CH-]C(=O)c1ccccc1)c1ccccc1.O=C([CH-]C(=O)c1ccccc1)c1ccccc1.[OH3+].[Y+3] | 26.7 µM | 18.9 µM | 38.9 µM | 25.8 µM | 11.5 µM | 40.2 µM | 13.9 µM |  | 47.2 µM | 26.8 µM | 4.68 µM | 5.68 µM | 3.51 µM | 13.2 µM | 10.3 µM | 2.4 µM | 3.72 µM |  | 14 µM | 10.8 µM
O=C1NC2CCC(C2)C1c1ccccc1 (configuration not stated) | > 100 µM | > 100 µM | > 100 µM | > 100 µM | > 100 µM | > 100 µM | > 100 µM | > 100 µM | > 100 µM |  |  |  |  |  |  |  |  |  |  | 
CC/C(=C(/CC)c1ccc(O)cc1)c1ccc([O-])cc1.CC/C(=C(/CC)c1ccc(O)cc1)c1ccc([O-])cc1.O=C([CH-]C(=O)c1ccccc1)c1ccccc1.O=C([CH-]C(=O)c1ccccc1)c1ccccc1.[Ti+4] | 26.9 µM |  | 32.3 µM | 24.6 µM |  | > 100 µM |  | 45.5 µM | 20.3 µM | 61 µM | 14 µM | 16.3 µM |  | 7.99 µM | 12.2 µM |  |  | 23.6 µM | 7.53 µM | 15.8 µM
COc1ccc(-c2ccc(/C=N/n3c(COc4ccc(Cl)cc4Cl)nn(CN4CCN(C)CC4)c3=S)o2)c([N+](=O)[O-])c1 | 41.5 µM | 30.6 µM | > 100 µM |  | 43.9 µM | > 100 µM |  | 31 µM |  | 37.3 µM | 17.8 µM | 16.8 µM | 13.3 µM | 20.8 µM |  | 16.3 µM |  | 12.5 µM |  | 47.8 µM
O=C([O][Hg][CH2]C1COCC([CH2][Hg][O]C(=O)c2ccccc2)O1)c1ccccc1 (configuration not stated) | 32.2 µM | 36.8 µM | 27.2 µM |  | 13.9 µM | 19.6 µM | 24.6 µM | 41.9 µM |  | 3.21 µM | 7.68 µM | 1.61 µM | 16.1 µM | 12.6 µM |  | 3.84 µM | 11.9 µM | 20.8 µM |  | 6.86 µM
O=c1[nH]c2c3ccccc3ccc2c2cc3c(cc12)OCO3 | > 100 µM | > 100 µM | > 100 µM | > 100 µM |  | > 100 µM | > 100 µM | > 100 µM | > 100 µM | > 100 µM |  |  |  |  |  |  |  |  |  | 
Cc1ccc(NC(=O)CC(=O)n2nc(-c3ccccc3)c(N=Nc3ccccc3Cl)c2-c2ccccc2)cc1 | > 100 µM | > 100 µM | > 100 µM | > 100 µM | > 100 µM | > 100 µM | > 100 µM |  | > 100 µM | > 100 µM | > 100 µM |  |  |  | > 100 µM | 93.8 µM |  |  |  | 
COc1ccc(C2=C(c3ccc(OC)c(OC)c3)C(=O)OC2)cc1 | > 82.1 µM | > 100 µM | > 100 µM |  | 1.51 µM | > 100 µM | 2.57 µM | 2.92 µM | > 81 µM | 4.89 µM | 0.123 µM |  | 0.023 µM | 0.133 µM |  |  | < 0.05 µM | 0.0169 µM |  | 
CN(C)CC/C(=N\Nc1ccccc1)c1ccccc1 |  | > 100 µM | > 100 µM | 58.9 µM |  |  | 35.6 µM |  | 25.6 µM | 11.2 µM |  |  |  |  |  |  |  |  |  | 
CC[Si](CC)(CC)OC[C@]1([C@@H]2COC(C)(C)O2)CC=CC(=O)O1 | > 100 µM | > 100 µM | > 100 µM |  |  | 85.3 µM | 40 µM |  | 44.4 µM | > 100 µM | 31.1 µM | 33.6 µM | 23.3 µM | 30.4 µM |  |  | 19 µM |  | 18.1 µM | 19.8 µM
O=C1c2ccccc2C2(O)NC(=S)N(c3ccccc3)C12O (configuration not stated) |  | > 100 µM | > 100 µM | > 100 µM | > 100 µM | > 100 µM |  |  | > 100 µM | > 100 µM |  |  |  |  |  |  |  |  |  | 
CC(C)C1CCC/C=C/C=C/C=C/C=C/C(OC2OC(C)C(O)C(N)C2O)CC2OC(O)(CC(O)CC(O)C(O)CCC(=O)O1)CC(O)C2C(=O)O (configuration not stated) | > 52.5 µM |  | > 52.5 µM |  | > 52.5 µM | > 52.5 µM | > 52.5 µM |  | > 52.5 µM | > 52.5 µM |  |  |  |  |  |  |  |  |  | 
O=C(O)CC12C3C4C5C3C1C5C42 (configuration not stated) | > 100 µM | > 100 µM | > 100 µM | > 100 µM | > 100 µM | > 100 µM | > 100 µM |  | > 100 µM | > 100 µM |  |  |  |  |  |  |  |  |  | 
COc1ccc2c(c1)OC1=C(C(=O)OC1)C2c1cc(OC)c(OC)c(OC)c1 (configuration not stated) | > 100 µM | > 100 µM | > 100 µM | > 100 µM | 0.673 µM | > 100 µM | 61.2 µM | 5.99 µM | 87.6 µM |  | 0.806 µM |  | 0.609 µM | 0.61 µM | 1.27 µM | 0.256 µM | 0.363 µM | 0.441 µM | 0.468 µM | 0.667 µM
CC(C)CNc1nc(-c2ccccc2)nc2ccccc12 | 38.6 µM | 34.5 µM | 31.8 µM | 29.8 µM |  | 32.7 µM | 29 µM | 35 µM | 26.4 µM | 29.8 µM | 18.4 µM | 15.4 µM | 17 µM | 15.1 µM | 15.9 µM |  | 15.2 µM | 16.9 µM | 13.4 µM | 17.3 µM
COC(=O)C12CC(c3ccccc31)C1C(=O)OC(=O)C12 (configuration not stated) | > 100 µM | > 100 µM | > 100 µM | > 100 µM | > 100 µM | > 100 µM | > 100 µM |  | > 100 µM |  |  |  |  |  |  |  |  |  |  | 
Cc1ccc(NC(=O)CCC/C(CC(=O)c2ccc(Br)cc2)=N/NC(=O)CC#N)cc1 | > 100 µM | > 100 µM | > 100 µM | > 100 µM | > 100 µM | > 100 µM | > 100 µM | > 100 µM | > 100 µM |  |  |  |  |  |  |  |  |  |  | 
CCOc1ccc(Nc2nc(-c3ccc4c(c3)NC(=O)CO4)cs2)cc1 | > 100 µM | > 100 µM | > 100 µM |  | 8.17 µM | 19.6 µM | 3.5 µM | > 100 µM | 20.4 µM | 90.7 µM | 49.4 µM | 19 µM | 6.96 µM | 5.14 µM |  | 2.14 µM | 1.65 µM | 10 µM | 4.71 µM | 4.29 µM
O=CN1N=C(c2ccc(Cl)cc2)CC1c1cccc(Nc2ccnc3cc(Cl)ccc23)c1 (configuration not stated) | > 100 µM | > 100 µM | 94.2 µM | 35.3 µM | 4.49 µM | 31.2 µM | 1.93 µM | 57.7 µM | 7.25 µM |  | 3.99 µM |  | 1.07 µM | 2.03 µM | 3.12 µM | 1.27 µM | 0.54 µM | 1.87 µM | 1.27 µM | 3.15 µM
O=[N+]([O-])c1ccc(N=Nc2c(O)ccc3ccccc23)cc1 | > 100 µM | > 100 µM | > 100 µM | > 100 µM | > 100 µM | > 100 µM | > 100 µM | > 100 µM |  | > 100 µM |  |  | 42.9 µM and > 100 µM | 28.2 µM and > 100 µM |  | 38.4 µM and > 100 µM |  | 35.4 µM and > 100 µM |  | 
Cc1nc2cc(N)c(F)cc2[nH]1 | > 100 µM | > 100 µM | > 100 µM |  | > 100 µM | > 100 µM | > 100 µM | > 100 µM | > 100 µM | > 100 µM |  |  |  |  |  |  |  |  |  | 
COC1OC(C)C(O)CC1OS(=O)(=O)c1ccc(C)cc1 (configuration not stated) | > 100 µM | > 100 µM | > 100 µM |  | > 100 µM | > 100 µM | > 100 µM | > 100 µM | > 100 µM | > 100 µM |  |  |  |  |  |  |  |  |  | 
